The values that follow come from patent US20080102042A1, “Oral Composition” (KYOWA HAKKO KOGYO CO., LTD., priority 2004, published 2008).

The structures appear in SMILES notation.

Assay [1] concerns alveolar pyorrhea. As to the kind of experiment: Test Example 2: injection into the periodontal pocket of a patient with alveolar pyorrhea (big periodontal pocket, loose tooth), then continued toothbrushing. Type of assay: in vivo, human. The method, then: This treatment was carried out after toothbrushing three times a day for two weeks. […] Thereafter, toothbrusing was continuously carried out using a very fine toothbrush with buffered saline (pH 7.0) containing 2.5% by weight of N-acetylhydroxyproline on it with massage of the gingiva and the inside of the periodontal pocket. This toothbrusing was carried out for more than three minutes three times a day.

Assay [2] deals with advanced alveolar pyorrhea. As to the kind of experiment: Test Example 1: injection into the periodontal pocket of a patient with advanced alveolar pyorrhea, with gingival massage. Type of assay: in vivo, human. The settings on record: buffered saline (pH 7.0) containing 2.5% by weight, 0.8 ml into periodontal pocket, gingiva massaged, twice a day for two weeks; one patient. The method, then:
Buffered saline (pH 7.0) containing 2.5% by weight of N-acetylhydroxyproline (0.8 ml) was injected into the periodontal pocket of a patient with advanced alveolar pyorrhea and the gingiva was lightly massaged.

The mark [3] stands for this setting: buffered saline (pH 7.0) containing 2.5% by weight, 0.8 ml into periodontal pocket, after toothbrushing three times a day for two weeks, one patient.

Regarding `CC(=O)N1C[C@H](O)C[C@H]1C(=O)O` [N-acetylhydroxyproline, N-acetyl-trans-4-hydroxy-L-proline], in assay [1] (setting [3]), the “looseness of the tooth” value is “remarkably improved” and the “pain of alveolar pyorrhea” value is on record as “completely disappeared”. In addition, the “healthy state without pain or looseness of tooth (prevention of recurrence)” value in assay [1] (thereafter continued toothbrushing with buffered saline (pH 7.0) containing 2.5% by weight, more than three minutes three times a day) is on record as “could be maintained”. Further, the “symptoms of alveolar pyorrhea” value in assay [2] is recorded as “remarkably improved”.
